Measured values as given in patent US20180284095A1, “BIOMARKERS ASSOCIATED WITH LSD1 INHIBITORS AND USES THEREOF” (Oryzon Genomics, S.A., priority 2015, published 2018).

Columns and labels:
S100A9 [1] = test: qRT-PCR, hippocampus of SAMP8 mice (Example 5); format: in vivo, mouse; conditions: 2 or 4 months
Text: qRT-PCR is a variant of the PCR (Polymerase Chain Reaction) method that permits the simultaneous exponential amplification and detection of specific cDNA fragments. The Taqman gene expression assays employ the principle of doubly labeled hydrolysis probes. The probes are marked with a fluorescent moiety at their 5′ end and with a quencher moiety at the 3′ end, which prevents the generation of fluorescence according to the Förster energy transfer principle.
During the amplification process, the hydrolysis probe hybridizes to its complementary sequence in the target amplicon. During each cycle, the Taq polymerase initiates the production of a copy of the target sequence starting from the primer. When the Taq polymerase reaches the hydrolysis probe, its 5′-3′ exonuclease activity fragments the hydrolysis probe, and liberates the fluorescent group from the quencher moiety, resulting in the emission of a fluorescent signal.
In the exponential phase of the amplification reaction, the intensity of the fluorescence is directly proportional to the quantity of PCR product formed. The LightCycler® 480 Software determines the “crossing point” (Cp), i.e. the point where the reaction's fluorescence reaches the maximum of the second derivative of the amplification curve, which corresponds to the point where the acceleration of the fluorescence signal is at its maximum. […] The 2-Cp values are proportional to the target mRNA concentration in the original RNA sample.
Samples from animals receiving treatment for 2 months and 4 months were processed and statistically analyzed together. After extraction (RNeasy Mini KIT; QIAGEN), total RNA was reverse transcribed to obtain 1st strand cDNA (High Capacity RNA-to-cDNA Master Mix; Applied Biosystems). A serial dilution of 1st strand product from hippocampus was used to perform triplicate qRT-PCR (Taqman gene expression assay, Life technologies) reactions to analyze the Cp values of S100A8 and S100A9. Cp increase was normalized relative to the expression level of an endogenous reference gene (GADPH).

S100A9 [2] = test: Illumina RNA sequencing, hippocampus of SAMP8 mice (Example 4); format: in vivo, mouse
Procedure: Illumina dye sequencing begins with the attachment of cDNA molecules to primers on a slide, followed by amplification of that DNA to produce local colonies. The four types (adenine, cytosine, guanine, and thymine) of reversible terminate bases are added, each fluorescently labeled with a different color and attached with a blocking group. The four bases then compete for binding sites on the template cDNA to be sequenced and non-incorporated molecules are washed away. After each synthesis, a laser is used to excite the dyes and a photograph of the incorporated base is taken. A chemical deblocking step is then used in the removal of the 3′ terminal blocking group and the dye in a single step. The process is repeated until the full cDNA molecule is sequenced.
Illumina RNA-Seq technology records the numerical frequency of sequences in a library population. 50 bp single reads with multiples of 30M single reads are guaranteed using Illumina sequencing technology. The RNA-Seq reads are aligned to the reference genome or reference transcriptome using Bowtie generating genome/transcriptome alignments. TopHat identifies the potential exon-exon splice junctions of the initial alignment. Then Cufflinks identifies and quantifies the transcripts from the preprocessed RNA-Seq alignment assembly. After this, Cuffmerge merges the identified transcript pieces to full length transcripts and annotates the transcripts based on the given annotations. Finally, merged transcripts from two or more samples/conditions are compared using Cuffdiff to determine the differential expression levels at transcript and gene level including a measure of significance between samples/conditions.
Differential gene expression. Operating on the RNA-Seq alignments and Cuffinks processing, Cuffdiff tracks the mapped reads and determines the fragment per kilo base per million mapped reads (FPKM) for each transcript in all the samples. Primary transcripts and gene FPKMs are then computed by adding up the FPKMs of each primary transcript group or gene group. […]

(−) 5-((((trans)-2-(4-(benzyloxy)phenyl)cyclopropyl)amino)methyl)-1,3,4-oxadiazol-2-amine [Compound 1]
S100A9 expression (Δ Cp, qRT-PCR) (S100A9 [1]; SAMP8 females, 0.96 mg/kg/day (p<0.001) and 3.2 mg/kg/day (p<0.001)): down-regulated S100A9 expression in a dose-dependent fashion
S100A9 expression (Δ Cp, qRT-PCR) (S100A9 [1]; SAMP8 females, 0.96 mg/kg/day (p<0.001) and 3.2 mg/kg/day (p<0.001), listed as compound 1): reduction of S100A9 expression
S100A9 expression (Δ Cp, qRT-PCR) (S100A9 [1]; SAMP8 males, 0.96 mg/kg (p<0.001), 0.96 mg/kg): down-regulated S100A9 expression
S100A9 expression (Δ Cp, qRT-PCR) (S100A9 [1]; SAMP8 males, 0.96 mg/kg (p<0.001), listed as compound 1, 0.96 mg/kg): reduction of S100A9 expression
Female FPKM S100A9 (S100A9 [2]; hippocampus pool, SAMP8 females, 0.96 mg/kg/day, 4 months): 0.61 FPKM
Male FPKM S100A9 (S100A9 [2]; hippocampus pool, SAMP8 males, 0.32 mg/kg/day, 4 months): 1.03 FPKM
S100A9 expression (RNA-seq) (S100A9 [2]; hippocampus, SAMP8, vs vehicle-treated animals of the same sex): down-regulated S100A9 expression
